Like-named read-outs stand apart in the source and are kept apart here.
How the values were obtained:
[1] = 32% DBM in hyaluronan carrier, histology after 28 days
Method: Osteoinductivity: Cortical bone from three donors ([…], […], […]) was processed using a control process, 0 hour H2O2 with no sonication, a treatment process with 1 hour, 3 hours, and 5 hours of H2O2 treatment, and a negative control. After processing, the bone was ground, demineralized, and prepared into 32% Demineralized Bone Matrix in a hyaluronan carrier. Samples (15 mg) were implanted bilaterally into the hamstring muscle in an athymic mouse model, approved by the University of Medicine and Dentistry of New Jersey animal care and use committee. Implants were evaluated histologically after 28 days.

[2] = test system: Bacillus subtilis (vegetative); test: Bacteriological sterility: log reduction on cortical bone samples; type: cell-based; details: single process step; for Microbiological Log Reductions T2: full cycle time; for Microbiological Log Reductions T1: one quarter cycle time
Method: (§1) Bacteriological Sterility: Cortical bone samples were subjected to the previous steps of the process. […] The samples were assayed for bacteria activity, using standard assays.

Pseudomonas aeruginosa = test: as above; type: cell-based; details: single process step; for Microbiological Log Reductions T2: full cycle time; for Microbiological Log Reductions T1: one quarter cycle time
Method: as §1

Escherichia coli = test: as above; type: cell-based; details: single process step; for Microbiological Log Reductions T2: full cycle time; for Microbiological Log Reductions T1: one quarter cycle time
Method: as §1

Staphylococcus aureus = test: as above; type: cell-based; details: single process step; for Microbiological Log Reductions T2: full cycle time; for Microbiological Log Reductions T1: one quarter cycle time
Method: as §1

[3] = test system: Staphylococcus epidermidis; test: as above; type: cell-based; details: single process step; for Microbiological Log Reductions T2: full cycle time; for Microbiological Log Reductions T1: one quarter cycle time
Method: as §1

Candida albicans = test: as above; type: cell-based; details: single process step; for Microbiological Log Reductions T2: full cycle time; for Microbiological Log Reductions T1: one quarter cycle time
Method: as §1

Compound | mean (SD) osteoinductivity score ([1]; 1 hour H2O2 treatment of bone) | mean (SD) osteoinductivity score ([1]; 3 hours H2O2 treatment of bone) | mean (SD) osteoinductivity score ([1]; 5 hours H2O2 treatment of bone) | Microbiological Log Reductions T2 [2] | Microbiological Log Reductions T1 [2] | Microbiological Log Reductions T2 (Pseudomonas aeruginosa) | Microbiological Log Reductions T1 (Pseudomonas aeruginosa) | Microbiological Log Reductions T2 (Escherichia coli) | Microbiological Log Reductions T1 (Escherichia coli) | Microbiological Log Reductions T2 (Staphylococcus aureus) | Microbiological Log Reductions T1 (Staphylococcus aureus) | Microbiological Log Reductions T2 [3] | Microbiological Log Reductions T1 [3] | Microbiological Log Reductions T2 (Candida albicans) | Microbiological Log Reductions T1 (Candida albicans)
OO [H2O2, hydrogen peroxide] | 3.04 (0.97) | 2.57 (1.36) | 1.47 (1.10) | >5.25 Log | >5.25 Log | >5.09 Log | >5.09 Log | >5.19 Log | >5.19 Log | >5.93 Log | >5.93 Log | >5.21 Log | >5.21 Log | >5.10 Log | >5.47 Log
Triton X-100 |  |  |  | 2.41 Log | 2.56 Log | 3.40 Log | 2.48 Log | 1.82 Log | 0.03 Log | 0.20 Log | −0.59 Log | 0.41 Log | 0.56 Log | 1.58 Log | 1.78 Log

From patent publication US20040037735A1, “Allograft tissue purification process for cleaning bone” (priority 2002, published 2004)
